The target of experiment [1] is T1, Alpha-2A adrenergic receptor (Homo sapiens, UniProt P08913).
T1 sequence (P08913 whole entry): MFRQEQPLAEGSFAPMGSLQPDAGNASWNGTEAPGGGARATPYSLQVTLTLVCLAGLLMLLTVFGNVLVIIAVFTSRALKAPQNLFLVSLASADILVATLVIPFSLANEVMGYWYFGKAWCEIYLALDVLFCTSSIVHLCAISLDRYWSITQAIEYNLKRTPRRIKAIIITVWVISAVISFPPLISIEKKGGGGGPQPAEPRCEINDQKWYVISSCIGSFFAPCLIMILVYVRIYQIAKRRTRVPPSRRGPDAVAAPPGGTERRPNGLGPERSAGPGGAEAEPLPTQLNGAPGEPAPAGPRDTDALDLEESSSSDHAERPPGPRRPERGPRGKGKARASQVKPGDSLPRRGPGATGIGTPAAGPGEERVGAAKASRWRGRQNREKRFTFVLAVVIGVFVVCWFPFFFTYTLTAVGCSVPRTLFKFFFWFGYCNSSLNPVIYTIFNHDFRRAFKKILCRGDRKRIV
The experiment is classed as functional, cell-based.

Experiment [2] deals with Beta-1 adrenergic receptor (Homo sapiens, UniProt P08588). It is filed as functional.
The target in experiment [3] is T2, Muscarinic acetylcholine receptor M1 (Homo sapiens, UniProt P11229).
T2 sequence (P11229 whole entry): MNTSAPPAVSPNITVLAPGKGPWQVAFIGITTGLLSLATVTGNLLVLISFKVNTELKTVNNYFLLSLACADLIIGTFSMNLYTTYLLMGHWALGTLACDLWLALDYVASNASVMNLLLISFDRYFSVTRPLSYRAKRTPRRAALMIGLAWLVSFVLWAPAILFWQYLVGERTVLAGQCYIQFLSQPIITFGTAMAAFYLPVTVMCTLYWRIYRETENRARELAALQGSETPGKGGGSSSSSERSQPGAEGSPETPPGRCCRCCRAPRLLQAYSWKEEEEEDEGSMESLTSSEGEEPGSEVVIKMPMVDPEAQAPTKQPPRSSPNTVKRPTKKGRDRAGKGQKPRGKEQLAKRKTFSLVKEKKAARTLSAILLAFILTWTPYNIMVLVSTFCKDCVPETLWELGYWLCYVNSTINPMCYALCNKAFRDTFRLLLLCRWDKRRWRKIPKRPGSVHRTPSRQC
It is filed as functional.

Experiment [4] concerns the target Histamine H1 receptor (Homo sapiens, UniProt P35367).
Experiment [5] deals with T3, 5-hydroxytryptamine receptor 2C (Homo sapiens, UniProt P28335).
T3 sequence (P28335 whole entry): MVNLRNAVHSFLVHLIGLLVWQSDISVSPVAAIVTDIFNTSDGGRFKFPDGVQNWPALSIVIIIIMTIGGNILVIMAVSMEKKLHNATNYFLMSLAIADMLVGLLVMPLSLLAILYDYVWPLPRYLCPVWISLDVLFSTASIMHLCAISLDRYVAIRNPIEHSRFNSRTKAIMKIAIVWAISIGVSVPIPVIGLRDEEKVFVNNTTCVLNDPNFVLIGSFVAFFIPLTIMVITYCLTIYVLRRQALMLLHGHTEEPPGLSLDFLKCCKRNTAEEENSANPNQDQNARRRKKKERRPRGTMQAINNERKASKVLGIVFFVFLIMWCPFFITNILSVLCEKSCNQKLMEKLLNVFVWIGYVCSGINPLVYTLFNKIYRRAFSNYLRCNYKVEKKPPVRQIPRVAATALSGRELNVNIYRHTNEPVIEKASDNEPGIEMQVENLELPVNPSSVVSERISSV

Experiment [6] has as its target Kappa-type opioid receptor (Homo sapiens, UniProt P41145).
For experiment [7], the target named is T1, Alpha-2A adrenergic receptor.
For experiment [8], the target named is T4, 5-hydroxytryptamine receptor 1A (Homo sapiens, UniProt P08908).
T4 sequence (P08908 whole entry): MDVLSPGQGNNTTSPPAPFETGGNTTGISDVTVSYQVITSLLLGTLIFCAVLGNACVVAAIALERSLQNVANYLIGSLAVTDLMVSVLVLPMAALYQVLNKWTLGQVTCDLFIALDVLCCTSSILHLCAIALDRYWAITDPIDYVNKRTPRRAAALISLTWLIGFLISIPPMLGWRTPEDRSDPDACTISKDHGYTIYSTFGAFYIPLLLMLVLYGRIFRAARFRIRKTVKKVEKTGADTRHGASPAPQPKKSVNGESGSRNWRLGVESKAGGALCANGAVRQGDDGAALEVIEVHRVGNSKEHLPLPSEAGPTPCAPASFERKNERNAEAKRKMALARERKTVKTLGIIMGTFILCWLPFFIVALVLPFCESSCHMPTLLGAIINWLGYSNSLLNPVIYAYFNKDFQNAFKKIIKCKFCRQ

Experiment [9] has as its target T5, Amine oxidase [flavin-containing] A (Homo sapiens, UniProt P21397).
T5 sequence (P21397 whole entry): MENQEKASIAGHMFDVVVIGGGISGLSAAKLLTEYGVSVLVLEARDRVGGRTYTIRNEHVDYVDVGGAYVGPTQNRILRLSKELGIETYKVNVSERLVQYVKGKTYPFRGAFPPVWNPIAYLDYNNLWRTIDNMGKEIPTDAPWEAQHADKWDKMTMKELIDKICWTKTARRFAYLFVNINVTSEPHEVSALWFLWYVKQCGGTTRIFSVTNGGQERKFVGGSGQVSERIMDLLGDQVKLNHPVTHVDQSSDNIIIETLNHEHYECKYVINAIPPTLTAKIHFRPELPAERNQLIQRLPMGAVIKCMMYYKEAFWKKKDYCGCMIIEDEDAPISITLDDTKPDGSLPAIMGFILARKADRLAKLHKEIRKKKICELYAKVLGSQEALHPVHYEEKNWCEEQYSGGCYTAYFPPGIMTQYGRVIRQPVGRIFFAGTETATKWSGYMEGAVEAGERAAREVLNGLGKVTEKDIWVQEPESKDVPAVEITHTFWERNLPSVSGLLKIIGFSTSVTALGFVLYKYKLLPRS
The experiment is classed as functional.

For experiment [10], the target named is Sodium-dependent dopamine transporter (Homo sapiens, UniProt Q01959).

A value given as a limit tells only on which side of the number the result lay.
Note: assay procedure not described here.

Chain of Beta-1 adrenergic receptor (P08588 whole entry): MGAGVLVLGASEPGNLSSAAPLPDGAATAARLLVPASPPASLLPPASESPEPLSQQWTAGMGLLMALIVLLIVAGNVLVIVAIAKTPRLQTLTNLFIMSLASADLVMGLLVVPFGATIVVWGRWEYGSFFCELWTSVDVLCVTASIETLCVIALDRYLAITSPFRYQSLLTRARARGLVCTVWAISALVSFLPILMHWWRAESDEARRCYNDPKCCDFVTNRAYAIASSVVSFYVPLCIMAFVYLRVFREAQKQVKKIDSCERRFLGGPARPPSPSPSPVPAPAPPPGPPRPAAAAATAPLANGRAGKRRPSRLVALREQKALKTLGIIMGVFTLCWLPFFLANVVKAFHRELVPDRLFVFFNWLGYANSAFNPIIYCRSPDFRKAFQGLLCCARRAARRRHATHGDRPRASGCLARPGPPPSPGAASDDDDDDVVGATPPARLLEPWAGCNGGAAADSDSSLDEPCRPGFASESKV
Chain of Histamine H1 receptor (P35367 whole entry): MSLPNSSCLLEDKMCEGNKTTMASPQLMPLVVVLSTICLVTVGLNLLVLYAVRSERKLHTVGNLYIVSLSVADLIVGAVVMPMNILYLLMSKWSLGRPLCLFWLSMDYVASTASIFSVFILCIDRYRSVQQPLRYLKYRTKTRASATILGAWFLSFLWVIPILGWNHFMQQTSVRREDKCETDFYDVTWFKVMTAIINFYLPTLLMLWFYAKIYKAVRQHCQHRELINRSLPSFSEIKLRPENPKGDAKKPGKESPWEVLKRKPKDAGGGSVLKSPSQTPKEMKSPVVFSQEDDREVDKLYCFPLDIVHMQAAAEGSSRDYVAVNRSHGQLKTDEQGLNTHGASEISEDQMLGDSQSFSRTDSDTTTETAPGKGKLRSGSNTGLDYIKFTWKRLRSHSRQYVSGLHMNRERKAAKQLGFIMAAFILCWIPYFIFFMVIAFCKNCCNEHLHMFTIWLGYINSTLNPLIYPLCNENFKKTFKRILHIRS
Chain of Kappa-type opioid receptor (P41145 whole entry): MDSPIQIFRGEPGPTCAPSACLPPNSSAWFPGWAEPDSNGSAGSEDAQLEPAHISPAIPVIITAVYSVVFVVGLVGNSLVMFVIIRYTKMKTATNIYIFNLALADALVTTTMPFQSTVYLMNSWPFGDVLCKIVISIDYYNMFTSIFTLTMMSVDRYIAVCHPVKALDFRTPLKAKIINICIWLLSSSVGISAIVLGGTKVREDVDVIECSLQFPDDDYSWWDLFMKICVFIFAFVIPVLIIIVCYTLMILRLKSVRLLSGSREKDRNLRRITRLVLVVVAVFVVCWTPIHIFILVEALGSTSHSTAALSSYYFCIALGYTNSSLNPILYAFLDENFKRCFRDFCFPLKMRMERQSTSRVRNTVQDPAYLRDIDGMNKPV
Chain of Sodium-dependent dopamine transporter (Q01959 whole entry): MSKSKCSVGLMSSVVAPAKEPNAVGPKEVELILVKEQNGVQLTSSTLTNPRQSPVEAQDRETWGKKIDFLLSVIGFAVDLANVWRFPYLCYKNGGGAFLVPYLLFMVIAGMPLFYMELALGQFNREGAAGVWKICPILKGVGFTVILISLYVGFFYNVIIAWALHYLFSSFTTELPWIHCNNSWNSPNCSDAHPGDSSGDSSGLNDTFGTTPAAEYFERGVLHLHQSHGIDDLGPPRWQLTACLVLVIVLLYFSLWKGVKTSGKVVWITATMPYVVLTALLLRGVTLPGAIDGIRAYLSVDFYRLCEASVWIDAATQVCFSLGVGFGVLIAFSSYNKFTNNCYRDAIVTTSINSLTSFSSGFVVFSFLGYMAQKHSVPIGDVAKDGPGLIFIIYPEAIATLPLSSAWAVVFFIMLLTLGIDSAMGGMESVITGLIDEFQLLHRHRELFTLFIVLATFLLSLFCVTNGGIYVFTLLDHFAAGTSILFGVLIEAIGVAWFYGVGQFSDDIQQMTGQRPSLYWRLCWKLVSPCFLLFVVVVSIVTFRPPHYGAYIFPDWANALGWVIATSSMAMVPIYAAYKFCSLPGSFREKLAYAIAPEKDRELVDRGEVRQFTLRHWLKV

By AC50 is commonly meant the midpoint of the concentration-response curve, whichever way the signal moves. As for `CCN(CC)C(=O)C1(c2ccccc2)CC1CN` (stereo not given), the AC50 was over 30 µM in [1]; over 30 µM in [2]; over 30 µM in [3]; over 30 µM in experiment [4]; 590 nM in experiment [5]; over 30 µM in experiment [6].

Regarding `CN(C)C(=O)Oc1cccc([N+](C)(C)C)c1` [NEOSTIGMINE], the AC50 in experiment [7], in experiment [8], in experiment [9] and in experiment [10] was over 30 µM in each case.

The values above are taken from ChEMBL document CHEMBL5291721, “A preclinical secondary pharmacology resource illuminates target-adverse drug reaction associations of marketed drugs” (Nat Commun, 2023).
